Molecular target: T1, soluble guanylate cyclase (sGC) (Homo sapiens, UniProt Q02108+Q02153)
T1 construct: endogenously expressing soluble guanylate cyclase (sGC); endogenous in cells; host or cells: HEK293
T1 sequence (Q02153 1-619): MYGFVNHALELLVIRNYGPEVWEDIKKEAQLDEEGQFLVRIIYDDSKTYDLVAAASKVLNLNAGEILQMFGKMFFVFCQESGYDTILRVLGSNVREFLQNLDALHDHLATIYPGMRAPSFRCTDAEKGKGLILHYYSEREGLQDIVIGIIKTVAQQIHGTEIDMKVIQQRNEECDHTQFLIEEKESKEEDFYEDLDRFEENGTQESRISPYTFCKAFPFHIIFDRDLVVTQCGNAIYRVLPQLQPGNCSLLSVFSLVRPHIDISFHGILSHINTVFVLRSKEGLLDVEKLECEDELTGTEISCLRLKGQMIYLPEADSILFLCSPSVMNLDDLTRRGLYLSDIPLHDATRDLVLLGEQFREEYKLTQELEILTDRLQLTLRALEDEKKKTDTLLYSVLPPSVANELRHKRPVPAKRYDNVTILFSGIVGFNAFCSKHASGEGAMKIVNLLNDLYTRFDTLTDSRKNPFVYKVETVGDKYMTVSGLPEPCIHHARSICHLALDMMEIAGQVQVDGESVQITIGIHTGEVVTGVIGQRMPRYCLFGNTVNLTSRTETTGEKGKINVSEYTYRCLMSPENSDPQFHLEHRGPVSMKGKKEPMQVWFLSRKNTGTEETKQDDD
T1 sequence (Q02108 1-690): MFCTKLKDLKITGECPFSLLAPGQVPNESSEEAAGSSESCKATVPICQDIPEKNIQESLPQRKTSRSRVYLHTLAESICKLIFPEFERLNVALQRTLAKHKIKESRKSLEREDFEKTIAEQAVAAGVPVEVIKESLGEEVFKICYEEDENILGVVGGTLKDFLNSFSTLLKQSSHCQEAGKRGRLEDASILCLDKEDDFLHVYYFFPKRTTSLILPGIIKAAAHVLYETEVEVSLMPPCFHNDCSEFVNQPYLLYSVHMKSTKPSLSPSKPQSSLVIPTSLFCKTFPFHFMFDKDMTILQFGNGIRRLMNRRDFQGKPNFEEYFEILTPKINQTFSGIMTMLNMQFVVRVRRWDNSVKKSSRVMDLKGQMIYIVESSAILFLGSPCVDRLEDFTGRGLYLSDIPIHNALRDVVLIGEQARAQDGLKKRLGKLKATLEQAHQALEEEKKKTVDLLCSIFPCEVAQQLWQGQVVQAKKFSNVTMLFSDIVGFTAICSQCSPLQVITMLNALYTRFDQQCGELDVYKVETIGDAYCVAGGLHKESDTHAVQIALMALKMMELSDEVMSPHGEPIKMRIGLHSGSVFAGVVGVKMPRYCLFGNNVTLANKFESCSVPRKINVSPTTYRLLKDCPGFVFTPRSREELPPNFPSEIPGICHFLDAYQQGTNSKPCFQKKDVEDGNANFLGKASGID
Assay: sGC-HEK-cGMP assay with SNP incubation (LC/MS read-out)
Format: cell-based
Conditions: 10 μM SNP
Method: (Assay Run with SNP Incubation)
Human embryonic kidney cells (HEK293), endogenously expressing soluble guanylate cyclase (sGC), were used to evaluate the activity of test compounds. Compounds stimulating the sGC receptor should cause an increase in the intracellular concentration of cGMP. HEK 293 cells were seeded in Dulbecco's Modification of Eagle's Medium supplemented with fetal bovine serum (10% final) and L-glutamine (2 mM final) in a 200 μL volume at a density of 1×10^5 cells/well in a poly-D-lysine coated 96 well flat bottom plate and grown overnight at 37° C. Medium was aspirated and cells were washed with 1× Hank's Buffered Saline Salt Solution (200 μL). Cells were then incubated for 15 minutes at 37° C. with 200 μL of a 0.5 mM 3-isobutyl-1-methylxanthine (IBMX) solution. Test article and sodium nitroprusside solutions (x μM concentration for test article solution and 10 μM concentration for SNP solution; wherein x is one of the following concentrations);
were then added to the assay mixture (2 μL each) and the resulting mixture incubated at 37° C. for 10 minutes. After the 10 minute incubation, the assay mixture was aspirated and 0.1M HCl (200 μL) was added to the cells. The plate was incubated at 4° C. for 30 minutes in the 0.1M HCl to stop the reaction and lyse the cells. The plates were then centrifuged at 1,200 g for 5 minutes at room temperature. Supernatants were collected and transferred to a new flat bottom 96 well plate for analysis by HPLC-MS. Vehicle controls were carried out using DMSO (1%) solutions. A known sGC stimulator, BAY 41-2272, was used as the positive control. Samples were diluted with an equal volume of 1 M Ammonium Acetate (pH 7) to neutralize samples for better chromatography. A 2×cGMP standard solution was prepared in 0.1 M HCl and then diluted with an equal volume of 1 M Ammonium Acetate, with the following final concentrations in nM: 1024, 512, 256, 128, 64, 32, 16, 8, 4, 2, 1. cGMP concentrations in the test plates were determined from each sample using the LC/MS conditions shown in Table 2 below and the calculated cGMP standard curve. EC50 values were calculated from concentration-response curves generated with GraphPad Prism Software.
The biological activities of some of the compounds of Formula I or Formula Ib determined with the sGC-HEK assay with SNP incubation are summarized in Tables 3A and 3B.

Emax at 10 µM (10 μM compound, 100% = BAY 41-2272 at 10 μM with 100 μM SNP, read-out: HEK assay (Percent Emax at 10 μM)): 80 to 100%
Emax at 30 µM (30 μM compound, 100% = BAY 41-2272 at 10 μM with 100 μM SNP, read-out: HEK assay (Percent Emax at 30 μM)): 80 to 100%
EC50 (top of curve fitted to 100%, read-out: HEK assay EC50-constrained): 1000 to 5000 nM
SMILES: Nc1ccnc(-n2cc(-c3ncco3)c(Cc3ccccc3F)n2)n1 [Compound I-2]

Source: US9487508B2, “SGC stimulators” (IRONWOOD PHARMACEUTICALS, INC., priority 2012, dated 2016)
